Laboratory results published in patent publication US10184933B2, “Compositions, systems and methods for gene expression noise drug screening and uses thereof” (priority 2013, dated 2019).
Where a name gives a salt, the structure may show the parent alone. Read-outs that look alike come from different tables or passages of the source.

Columns and labels:
[1] = system: latent HIV-1 in JLat 8.6 cells; type: cell-based
[2] = system: HIV-1 LTR promoter; type: cell-based
[3] = Pharmakon 1600 library, 10 uM, 24 hours, FIG. 10
[4] = Pharmakon 1600 library, 10 uM, 24 hours, FIG. 12

Compound	synergy in reactivation of HIV-1 latency [1]	identified as variability enhancer (VE) in noise screen [2, 3]	further results
COc1ccc(CCN(C)CCCC(C#N)(c2ccc(OC)c(OC)c2)C(C)C)cc1OC (racemic) [V24, (±)-Verapamil hydrochloride]	synergized	–	–
CC(C)NCC(O)c1ccc(O)c(O)c1.Cl (racemic) [V86, (±)-Isoproterenol hydrochloride]	synergized	–	identified as variability enhancer (VE) in noise screen [2]: variability enhancers
C=CCC1(C(C)CCC)C(=O)N=C(S)NC1=O (stereo not shown) [V8, thiamylal sodium]	synergized	variability enhancers	–
NNc1nncc2ccccc12 [V17, hydralazine hydrochloride]	synergized	–	identified as variability enhancer (VE) in noise screen [2]: variability enhancers
COc1ccc2c(c1)c(CC(=O)O)c(C)n2C(=O)c1ccc(Cl)cc1 [V18, Indomethacin]	synergized	variability enhancers	–
CC(C)c1c(C(=O)Nc2ccccc2)c(-c2ccccc2)c(-c2ccc(F)cc2)n1CC[C@@H](O)C[C@@H](O)CC(=O)[O-].CC(C)c1c(C(=O)Nc2ccccc2)c(-c2ccccc2)c(-c2ccc(F)cc2)n1CC[C@@H](O)C[C@@H](O)CC(=O)[O-].[Ca+2] [V20, atorvastatin calcium]	synergized	–	identified as variability enhancer (VE) in noise screen [2]: variability enhancers
CC(C)(CO)[C@@H](O)C(=O)NCCC(=O)[O-].[Na+] [V22, pantothenic acid(d) na salt]	synergized	–	identified as variability enhancer (VE) in noise screen [2]: variability enhancers
NCCc1cc(O)c(O)cc1O [V25, oxidopamine hydrochloride]	synergized	variability enhancers	–
C[C@]12CC[C@H]3[C@@H](CC[C@@]45O[C@@H]4C(O)=C(C#N)C[C@]35C)[C@@H]1CC[C@@H]2O [V26, trilostane]	synergized	variability enhancers	–
Cc1cn[nH]c1 [V27, fomepizole hydrochloride]	synergized	variability enhancers	–
NC(=O)C[S+]([O-])C(c1ccccc1)c1ccccc1 (stereo not shown) [V28, modafinil]	synergized	variability enhancers	–
Cc1cccc(C)c1N=C1NCCCS1 [V29, Xylazine hydrochloride]	synergized	variability enhancers	–
O=C(Nc1ccccc1)OCC(CN1CCCCC1)OC(=O)Nc1ccccc1 (stereo not shown) [V30, diperodon hydrochloride]	synergized	variability enhancers	–
Cc1cc(CC(=O)O)n(C)c1C(=O)c1ccc(Cl)cc1 [V31, zomepirac sodium]	synergized	variability enhancers	–
c1ccc2[nH]c(-c3cscn3)nc2c1 [V33, thiabendazole]	synergized	variability enhancers	–
Cc1cc(C(C#N)c2ccc(Cl)cc2)c(Cl)cc1NC(=O)c1cc(I)cc(I)c1O (stereo not shown) [V34, closantel]	synergized	variability enhancers	–
COc1ccc(-c2ccc3cc(C(=O)O)ccc3c2)cc1C12CC3CC(CC(C3)C1)C2 [V36, adapalene]	synergized	variability enhancers	–
CC(C)(C)NC(=O)[C@H]1CC[C@H]2[C@@H]3CC[C@H]4NC(=O)C=C[C@]4(C)[C@H]3CC[C@]12C [V37, finasteride]	synergized	variability enhancers	–
CCN(CC)CCNC(=O)c1ccc(N)cc1 [V38, Procainamide hydrochloride]	synergized	variability enhancers	–
CC1=C(C(=O)O)N2C(=O)[C@@H](NC(=O)[C@H](N)c3ccc(O)cc3)[C@H]2SC1 [V40, cefadroxil]	synergized	variability enhancers	–
COc1cnc(NS(=O)(=O)c2ccc(N)cc2)nc1 [V41, sulfameter]	synergized	variability enhancers	–
Nc1ccc(S(=O)(=O)Nc2cnc3ccccc3n2)cc1 [V42, sulfaquinoxaline sodium]	synergized	variability enhancers	–
CC[C@H]1OC(=O)[C@H](C)[C@@H](O[C@H]2C[C@@](C)(OC)[C@@H](O)[C@H](C)O2)[C@H](C)[C@@H](O[C@@H]2O[C@H](C)C[C@H](N(C)C)[C@H]2O)[C@](C)(O)C[C@@H](C)CN(C)[C@H](C)[C@@H](O)[C@]1(C)O [V43, azithromycin]	synergized	variability enhancers	–
CO[C@@]1(NC(=O)Cc2cccs2)C(=O)N2C(C(=O)O)=C(COC(N)=O)CS[C@@H]21 [V46, cefoxitin sodium]	synergized	variability enhancers	–

Compound	synergy in reactivation of HIV-1 latency [1]	identified as variability enhancer (VE) in noise screen [2, 3]	further results
CN1CCCN=C1COC(=O)C(O)(c1ccccc1)C1CCCCC1 (stereo not shown) [V47, oxyphencyclimine hydrochloride]	synergized	variability enhancers	–
CCN(CC)CC#CCOC(=O)C(O)(c1ccccc1)C1CCCCC1 (stereo not shown) [V48, oxybutynin chloride]	synergized	–	identified as variability enhancer (VE) in noise screen [2]: variability enhancers
C[N+]12CCC(CC1)C(OC(=O)C(O)(c1ccccc1)c1ccccc1)C2 (stereo not shown) [V49, clidinium bromide]	synergized	variability enhancers	–
CNCCC(Oc1ccc(C(F)(F)F)cc1)c1ccccc1 (stereo not shown) [V50, Fluoxetine hydrochloride]	synergized	–	identified as variability enhancer (VE) in noise screen [2]: variability enhancers
Cc1ccc(S(=O)(=O)NC(=O)NN2CCCCCC2)cc1 [V51, Tolazamide]	synergized	variability enhancers	–
COc1cc(C(=O)NCc2ccc(OCCN(C)C)cc2)cc(OC)c1OC [V52, trimethobenzamide hydrochloride]	synergized	variability enhancers	–
CCN(CC)CCNC(=O)c1cc(Cl)c(N)cc1OC [V53, Metoclopramide hydrochloride]	synergized	variability enhancers	–
Cc1cccc(N(C)C(=S)Oc2ccc3ccccc3c2)c1 [V54, tolnaftate]	synergized	variability enhancers	–
[O-][n+]1ccccc1[S-].[O-][n+]1ccccc1[S-].[Zn+2] [pyrithione zinc]	–	–	identified as variability suppressor (VS) in noise screen [2]: variability suppressors
Cc1cc2nc3c(=O)[nH]c(=O)nc-3n(C[C@H](O)[C@H](O)[C@H](O)COP(=O)([O-])O)c2cc1C.[Na+] [riboflavin 5-phosphate sodium]	–	variability enhancers	–
Cc1cc2nc3c(=O)[nH]c(=O)nc-3n(C[C@H](O)[C@H](O)[C@H](O)CO)c2cc1C [riboflavin]	–	–	identified as variability enhancer (VE) in noise screen [2]: variability enhancers
CO[C@H]1/C=C/O[C@@]2(C)Oc3c(C)c(O)c4c(O)c(c5c(nc6cc(C)ccn65)c4c3C2=O)NC(=O)/C(C)=C\C=C\[C@H](C)[C@H](O)[C@@H](C)[C@@H](O)[C@@H](C)[C@H](OC(C)=O)[C@@H]1C [rifaximin]	–	variability enhancers	–
NCCS(=O)(=O)O [taurine]	–	variability enhancers	–
c1ccc(C2CN3CCSC3=N2)cc1 (stereo not shown) [tetramizole hydrochloride]	–	–	identified as variability enhancer (VE) in noise screen [2]: variability enhancers
Nc1nc2nc[nH]c2c(=S)[nH]1 [thioguanine]	–	–	identified as variability enhancer (VE) in noise screen [2]: variability enhancers
C=C(NC(=O)C(=C)NC(=O)c1csc(C2=N[C@@H]3c4csc(n4)[C@H]4NC(=O)c5csc(n5)[C@H]([C@](C)(O)[C@@H](C)O)NC(=O)[C@H]5CSC(=N5)/C(=C/C)NC(=O)[C@H]([C@@H](C)O)NC(=O)c5csc(n5)[C@]3(CC2)NC(=O)[C@H](C)NC(=O)C(=C)NC(=O)[C@H](C)NC(=O)[C@H]([C@@H](C)CC)N[C@@H]2C=Cc3c([C@H](C)O)cc(nc3[C@H]2O)C(=O)O[C@@H]4C)n1)C(N)=O [thiostrepton]	–	variability enhancers	–
CN(C)C(=S)SSC(=S)N(C)C [thiram]	–	variability enhancers	–
COP(=O)(OC)C(O)C(Cl)(Cl)Cl (stereo not shown) [trichlorfon]	–	–	identified as variability suppressor (VS) in noise screen [2, 4]: variability suppressors
CC[C@]1(O)C[C@H]2CN(CCc3c([nH]c4ccccc34)[C@@](C(=O)OC)(c3cc4c(cc3OC)N(C=O)[C@H]3[C@@](O)(C(=O)OC)[C@H](OC(C)=O)[C@]5(CC)C=CCN6CC[C@]43[C@@H]65)C2)C1 [vincristine sulfate]	–	variability enhancers	–
CCC1=C[C@@H]2CN(C1)Cc1c([nH]c3ccccc13)[C@@](C(=O)OC)(c1cc3c(cc1OC)N(C)[C@H]1[C@@](O)(C(=O)OC)[C@H](OC(C)=O)[C@]4(CC)C=CCN5CC[C@]31[C@@H]54)C2 [vinorelbine]	–	variability enhancers	–
Nc1ccn([C@H]2CC[C@@H](CO)O2)c(=O)n1 [zalcitabine]	–	variability enhancers	–
arsenic trioxide	–	–	identified as variability suppressor (VS) in noise screen [2, 4]: variability suppressors
bleomycin [V66]	–	variability enhancers	–
meclocycline sulfosalicylate	–	–	identified as variability suppressor (VS) in noise screen [2, 4]: variability suppressors
